Experimental data published in patent publication US6638923B2, “Estra-1,3,5(10),16-tetraene derivatives” (Kyowa Hakko Kogyo Co., Ltd., priority 1999, dated 2003).

Target: T1, recombinant human estrone sulfatase (Homo sapiens, UniProt P08842)
T1 construct: made in house; host or cells: CHO (Chinese hamster ovary) cells
T1 sequence (P08842 22-583): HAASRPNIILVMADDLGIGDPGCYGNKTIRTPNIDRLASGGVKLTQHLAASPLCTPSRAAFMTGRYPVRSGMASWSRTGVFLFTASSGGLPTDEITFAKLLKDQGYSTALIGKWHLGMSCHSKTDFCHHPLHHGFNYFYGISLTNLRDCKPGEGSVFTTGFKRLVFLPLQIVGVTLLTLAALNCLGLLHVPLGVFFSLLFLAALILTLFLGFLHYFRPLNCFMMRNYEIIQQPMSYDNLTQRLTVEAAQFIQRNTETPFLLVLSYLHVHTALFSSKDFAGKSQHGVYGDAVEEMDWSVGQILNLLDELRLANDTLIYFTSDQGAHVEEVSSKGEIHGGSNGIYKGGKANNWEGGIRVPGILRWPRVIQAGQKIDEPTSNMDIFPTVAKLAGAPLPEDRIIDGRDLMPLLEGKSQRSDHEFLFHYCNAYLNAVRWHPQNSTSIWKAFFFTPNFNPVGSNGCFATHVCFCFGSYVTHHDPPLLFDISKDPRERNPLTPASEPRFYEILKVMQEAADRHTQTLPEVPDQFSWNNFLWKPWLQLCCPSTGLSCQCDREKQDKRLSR
Assay: Estrone sulfatase (steroid sulfatase) inhibition test
Assay type: biochemical
Settings: test compound 1 μM; [6,7-3H] estrone sulfate 3.3 nmol/L; pH 7; 1 hour at 37° C.; read-out: Inhibitory activity against estrone sulfatase, Inhibition % (1 μM)
Method: Estrone Sulfatase (Steroid Sulfatase) Inhibition Test:
[6,7-^3H] Estrone sulfate (final concentration, 3.3 nmol/L; 300,000 dpm/tube), recombinant human estrone sulfatase (33 ng/tube) and an estra-1,3,5(10),16-tetraene derivative (final concentration, 1 μmol/L) were added to a phosphate buffer (pH 7; final volume, 0.15 mL) containing 0.25 mol/L of sucrose and 0.04 mol/L of nicotinamide, and allowed to enzymatically react for 1 hour at 37° C. The recombinant human estrone sulfatase was obtained by transforming a human estrone sulfatase gene into CHO (Chinese hamster ovary) cells and expressing it in the cells, and used after partial purification. After completion of the enzyme reaction, the reaction solution was mixed with toluene (0.5 mL), followed by stirring, and the mixture was centrifuged for 5 minutes at 9,000 rpm. Thereafter, the toluene extraction layer was separated and the radioactivity of the resulting [^3H]-estrone was measured with a liquid scintillation counter. The measurement was carried out by duplication, and the fluctuation within the assay was 10% or less. An enzyme reaction in the absence of the test compound was carried out at the same time. The activity of the test compound to inhibit estrone sulfatase was calculated by the following formula.
Inhibitory activity against estrone sulfatase (%)=100−(100×(A/B)) […]

C[C@]12CC[C@@H]3c4ccc(O)cc4CC[C@H]3[C@@H]1CC=C2C(=O)O [Compound 1, 3-hydroxyestra-1,3,5(10), 16-tetraene-17-carboxylic acid]
inhibition at 1 µM: 48%
